Reference: paper PMC10953480 (RSC Medicinal Chemistry, 2024)

Columns and labels:
Cos-7 cells = test: Cytotoxicity to Cos-7 cells; format: cell-based, African green monkey (Cercopithecus aethiops)
CaV2.2 = details: read-out: CaV2.2 IC50; whole-cell patch clamp; cited from earlier work

In the case of `CN(C)CCCOc1ccc(C(=O)Nc2ccccc2Oc2ccccc2)cc1` [7b], the “concentration up to which well tolerated by Cos-7 cells” value (Cos-7 cells) is reported as no more than 100 µM.
In the case of `NC(N)=NCCCOc1ccc(C(=O)Nc2ccccc2Oc2ccc(F)cc2)cc1` [MONIRO-1 6a], the IC50 (CaV2.2) is listed as 34 µM.
